In ChEMBL document CHEMBL1201862, “PubChem BioAssay data set” (2004):
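Grown in 96-well plates, cells were treated for 48 hours with each compound at five concentrations. Insufficient inhibition: endpoint recorded as highest concentration tested. GI50 = concentration required for 50% inhibition of growth.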 The source made the active and inactive calls. Cut-off read from the data, not from the text of the source: active = GI50 up to about 1.1 µM and inactive = higher.

What was measured:
Experiment in all cases: NCI tumour cell line growth inhibition, 48 h
SW-620 = system: SW-620
OVCAR-5 = system: OVCAR-5
HOP-92 = system: HOP-92
SF-268 = system: SF-268
COLO 205 = system: COLO 205
NCI/ADR-RES = system: NCI/ADR-RES
ACHN = system: ACHN
OVCAR-8 = system: OVCAR-8
786-0 = system: 786-0
SK-MEL-2 = system: SK-MEL-2
UACC-257 = system: UACC-257
SNB-19 = system: SNB-19
UO-31 = system: UO-31
OVCAR-3 = system: OVCAR-3
HT-29 = system: HT-29
MDA-N = system: MDA-N
HCT-116 = system: HCT-116
MDA-MB-231 = system: MDA-MB-231

Measured: GI50

O=C(NCP(=O)(Oc1ccccc1)Oc1ccccc1)OCc1ccccc1
inactive: SW-620 > 100 µM | OVCAR-5 > 100 µM | HOP-92 38.7 µM | SF-268 > 100 µM | COLO 205 > 100 µM | NCI/ADR-RES > 100 µM | ACHN 80.5 µM | OVCAR-8 > 100 µM | 786-0 53.2 µM | SK-MEL-2 > 100 µM | UACC-257 > 100 µM | SNB-19 > 100 µM | UO-31 > 100 µM | OVCAR-3 55.1 µM | HT-29 > 100 µM

COC(=O)c1c(O)ccc2c1c1c(n2Cc2ccc(OC)cc2)C(=O)c2ccccc2C1=O
inactive: SW-620 18.6 µM | OVCAR-5 25.4 µM | HOP-92 10.5 µM | SF-268 12.4 µM | COLO 205 1.84 µM | NCI/ADR-RES 7.21 µM | ACHN 2.62 µM | OVCAR-8 2.4 µM | 786-0 12 µM | SK-MEL-2 11.3 µM | UACC-257 26.3 µM | SNB-19 22.5 µM | UO-31 3.92 µM | MDA-N 12.5 µM | HCT-116 6.3 µM | OVCAR-3 16.1 µM | HT-29 3.09 µM

CNC1=Nc2ccccc2C(=O)N2CSCC12 (stereo unspecified)
inactive: SW-620 > 100 µM | OVCAR-5 > 100 µM | SF-268 > 100 µM | COLO 205 > 100 µM | NCI/ADR-RES > 100 µM | ACHN > 100 µM | OVCAR-8 > 100 µM | 786-0 > 100 µM | SK-MEL-2 > 100 µM | UACC-257 > 100 µM | SNB-19 > 100 µM | UO-31 > 100 µM | MDA-N > 100 µM | HCT-116 > 100 µM | MDA-MB-231 > 100 µM | OVCAR-3 > 100 µM | HT-29 > 100 µM

c1csc(-c2csc(-c3cccs3)c2)c1
inactive: SW-620 35.9 µM | OVCAR-5 > 100 µM | HOP-92 17.7 µM | SF-268 84.5 µM | COLO 205 18 µM | NCI/ADR-RES > 100 µM | ACHN > 100 µM | OVCAR-8 > 100 µM | 786-0 52.1 µM | SK-MEL-2 20.2 µM | UACC-257 40 µM | SNB-19 32.4 µM | UO-31 57.8 µM | HCT-116 21.9 µM | MDA-MB-231 > 100 µM | OVCAR-3 29.4 µM | HT-29 > 100 µM

O=C(O)c1ccccc1CC1Cc2cc3c(cc2C1)CCC3
inactive: SW-620 > 100 µM | OVCAR-5 > 100 µM | SF-268 > 100 µM | COLO 205 > 100 µM | NCI/ADR-RES > 100 µM | ACHN > 100 µM | OVCAR-8 > 100 µM | 786-0 > 100 µM | SK-MEL-2 > 100 µM | UACC-257 > 100 µM | SNB-19 > 100 µM | UO-31 > 100 µM | MDA-N > 100 µM | HCT-116 > 100 µM | MDA-MB-231 > 100 µM | OVCAR-3 > 100 µM | HT-29 > 100 µM

COC(=O)C1=C(O)C(C(=O)OC)[C@]2(O)[C@H](C(=O)OC)[C@H]1C[C@@H](c1ccc([N+](=O)[O-])cc1)[C@H]2C(=O)OC (stereo partly specified)
inactive: SW-620 16.6 µM | OVCAR-5 25.2 µM | SF-268 16.9 µM | COLO 205 25 µM | NCI/ADR-RES 16.4 µM | ACHN 18.1 µM | OVCAR-8 17.6 µM | 786-0 14.9 µM | SK-MEL-2 18.4 µM | UACC-257 34.1 µM | SNB-19 19 µM | MDA-N 7.91 µM | HCT-116 14.7 µM | MDA-MB-231 24.6 µM | OVCAR-3 25.1 µM | HT-29 22.6 µM

CC1CC(C)C(C#N)N(C)c2ccccc21 (stereo unspecified)
inactive: SW-620 > 100 µM | OVCAR-5 > 100 µM | SF-268 > 100 µM | COLO 205 > 100 µM | NCI/ADR-RES > 100 µM | ACHN > 100 µM | OVCAR-8 > 100 µM | 786-0 > 100 µM | SK-MEL-2 > 100 µM | UACC-257 > 100 µM | SNB-19 > 100 µM | UO-31 > 100 µM | MDA-N > 100 µM | HCT-116 36.5 µM | MDA-MB-231 > 100 µM | OVCAR-3 > 100 µM | HT-29 78.3 µM

CCOC(=O)N(c1ccccc1)c1cc(=O)n2ccccc2n1
inactive: SW-620 > 100 µM | OVCAR-5 > 100 µM | SF-268 > 100 µM | COLO 205 > 100 µM | NCI/ADR-RES > 100 µM | ACHN > 100 µM | OVCAR-8 > 100 µM | 786-0 > 100 µM | UACC-257 > 100 µM | SNB-19 > 100 µM | UO-31 > 100 µM | HCT-116 > 100 µM | MDA-MB-231 > 100 µM | OVCAR-3 > 100 µM | HT-29 > 100 µM
